The values below come from patent US20250034216A1, “STEREOSELECTIVE COVALENT LIGANDS FOR ONCOGENIC AND IMMUNOLOGICAL PROTEINS” (The Scripps Research Institute, priority 2021, published 2025).

One test addresses T1, SF3B1 (~150 kDa protein) (Homo sapiens, UniProt O75533+Q7RTV0).
T1 construct: Cysteine engagement data from 22Rv1 cells treated; endogenous in cells; host or cells: 22Rv1
Put plainly: Gel-based ABPP for SF3B1 cysteine engagement. In kind it is binding. The settings on record: 22Rv1 cells, 1 μM alkyne probe, 1 h. Here is the method: 22Rv1 cells were treated with indicated compounds for 24 h, chased with click probe for 1 h in situ, harvested and lysed in PBS with protease inhibitors (cOmplete), and then normalized to 2.0 mg/mL. Reagents for the CuAAC click reaction were pre-mixed prior to addition to the samples (3 μL of click reaction mix for 25 μL of lysate). After 1 hour of click labeling, 4×SDS running buffer was added to samples, which were then analyzed by SDS-PAGE.

Test [1] addresses T2, recombinant FLAG-PSME1 (PSME1_C22) (Homo sapiens, UniProt Q06323).
T2 construct: FLAG (C); expressed in transfected cells; host or cells: HEK293T (lysate treated in vitro)
Nature of the test: Gel-based ABPP for PSME1 cysteine engagement. In kind it is binding. As to conditions: HEK293T lysates, WT or C22A FLAG-PSME1, 2.5 μM, 30 min. Here is the method:
C-terminally FLAG-tagged PSME1 WT or C22A were transiently expressed in HEK293T cells, harvested 48 hours later, then cells were divided into aliquots, flash frozen and stored at −80 C. On the day of the experiment, an aliquot of cells were thawed, lysed by sonication in ice-cold PBS supplemented with cOmplete protease inhibitors (1 tablet/10 mL of PBS). normalized to 2.0 mg/mL, and divided into 25 μL aliquots. 1 μL of DMSO or compound (25× stock) was incubated with lysates for 1.5 hours at RT, followed by incubation with 1 μL of 62.5 μM MY-11B click probe (final concentration […]) for an additional 30 minutes. Reagents for the CuAAC click reaction were pre-mixed prior to addition to the samples. After 1 hour of click labeling, 4×SDS running buffer was added to samples, which were then analyzed by SDS-PAGE. ImageJ was used to quantify rhodamine band intensities, and GraphPad PRISM Version 9.0.0 was used to generate IC50 curves (four-parameter variable slope least squares regression).

Test [2] concerns SF3B1 interacting proteins. Put plainly: SF3B1 co-immunoprecipitation-MS. The test is classed as cell-based, human. The settings on record: HEK293T cells, 5 μM WX-02-23 or 10 nM pladienolide B, 3 h. The method, then:
HEK293T cells were treated in situ with DMSO, 5 μM of WX-02-23/WX-02-43, or 10 nM pladienolide B for 3 hours. Cells were harvested, washed with ice-cold PBS, and lysed in ColP lysis buffer (0.5% NP-40, 100 mM EPPS, 150 mM NaCl, cOmplete protease inhibitor). Lysates centrifuged at 16,000 g for 3 minutes, normalized to 2.0 mg/mL and 500 μL of each lysate was aliquoted to a clean eppendorf tube.
Lysates were incubated with 5 μL of anti-IgG or anti-SF3B1 (CST) for 2 hours at 4 C, followed by 1 hour with 25 μL of protein-A agarose beads. Bead were washed twice with ColP lysis buffer, and then twice with 100 mM EPPS, followed by elution with 8 M urea in EPPS at 65 C for 10 min. […] Samples were then trypsinized at 37 C overnight (2 ug of trypsin per sample), then TMT labeled and desalted.

The test system of a further test is 22Rv1 cells. Put plainly: Proliferation assay (CellTiter Glo). The test is classed as cell-based, human. The settings on record: 72 h. The method, then:
Cells were seeded at 5000 cells per well (50 μL medium) in 96-well flat bottom white wall plates. After 24 h, 50 μL of medium containing DMSO or compound dilutions (2× final concentration from 1000× stocks) were added to the wells. At the time of compound addition, a reference plate to determine the cell population density at time 0 (TO) was assayed using CellTiter Glo reagent (50 μL added to each well). After 72 h in culture, the remaining plates were assayed using CellTiter Glo. After 30 min of shaking at room temperature, luminescence was analyzed using a CLARIOstar (BMG Labtech) plate reader. Raw values were normalized using GraphPad PRISM software version 9.0.0. Lines of best fit were generated using a four-parameter variable slope least squares regression.

The next test relates to p27. Put plainly: anti-p27 western blot. The test is classed as cell-based, human. As to conditions: 22Rv1 cells, 24 h.
Test [3] concerns mRNA splicing in 22Rv1 cells. Nature of the test: RNA sequencing, alternative splicing (rMATS). In kind it is cell-based, human. As to conditions: 8 hr, RNA-seq. The method, then: RNA sequencing libraries were prepared using the NEBNext Ultra II RNA Library Prep Kit for Illumina following manufacturer's instructions (NEB, Ipswich, MA, USA). mRNAs were first enriched with Oligo(dT) beads. Enriched mRNAs were fragmented for 15 minutes at 94° C. First strand and second strand cDNAs were subsequently synthesized. cDNA fragments were end repaired and adenylated at 3′ends, and universal adapters were ligated to cDNA fragments, followed by index addition and library enrichment by limited-cycle PCR. The sequencing libraries were validated on the Agilent TapeStation (Agilent Technologies, Palo Alto, CA, USA), and quantified by using Qubit 2.0 Fluorometer (Invitrogen, Carlsbad, CA) as well as by quantitative PCR (KAPA Biosystems, Wilmington, MA, USA). FASTQ files were first trimmed using Trim_galore (v0.6.4) to remove sequencing adapters and low quality (Q<15) reads. Trimmed sequencing reads were aligned to the human Hg19 reference genome (GENCODE, GRCh37.p13) using STAR (v2.7.5). SAM files were subsequently converted to BAM files, sorted, and indexed using samtools (v1.9). […] Read counting across genomic features was performed using featureCounts (part of the subread package; v1.5.0) using the following parameters: -p -T 20 -O -F GTF -t exon. […]
For quantification of alternative RNA splicing, BAM files generated by STAR/Samtools were analyzed using rMATS (v4.1.1) using the GENCODE (v19) GTF annotation for Hg19 (GRCh37.p13) and the following parameters: -t paired --libType fr-unstranded—readLength 150—novelSS. To utilize reads shorted than 150b.p. resulting from adapter and/or QC trimming by trim_galore, rMATS was programmed to accept soft-clipped reads of variable length. Enumeration of isoform counts was performed using only reads that span the splice junction directly. To identify high confidence AS events, events were considered significant if (i) the inclusion level difference was greater than 20% compared to DMSO, (ii) the False Discovery Rate (FDR) was smaller than 0.05, and (iii) there were a minimum of 20 reads mapping to the splice junction. […]

Test [4] relates to SIINFEKL presentation in E.G7-Ova cells. Put plainly: FACS analysis with citric acid wash. In kind it is cell-based, mouse. As to conditions: 4 h treatment, recovery up to 4 h. Here is the method:
(§1) E.G7-Ova cells (2 million/mL) were treated with compounds for 4 hours, washed with PBS, and then washed with 1 mL of 131 mM citric acid for 2 minutes, quenched with 1 mL 66 mM NaH2PO4, and then washed with PBS 3 times. Cells were then resuspended in warm RPMI and allowed to recover for the indicated period, after which cells were washed with PBS and transferred to 96 well plates for staining. Each well was washed with 200 μL PBS, and then stained for 20 minutes with 50 μL of staining solution: 1:1000 fixable near-IR LIVE/DEAD stain (Invitrogen) and 1:200 dilution of anti-SIINFEKL (BioLegend) or anti-Kb (BioLegend) antibody in FACS buffer (2% FBS in PBS supplemented with PenStrep and sterile filtered). Additional wells were used as unstained or singly-stained controls. After staining, cells were washed with PBS, then fixed in 200 μL 4% paraformaldehyde in PBS for 15 minutes. Cells were resuspended in 75 μL FACS buffer and analyzed on a Novocyte flow cytometer. The corresponding data in FIG. 2J are presented as the average percentage of median fluorescence intensity relative to DMSO treated control±SD from n=4 replicates. The corresponding data in FIG. 2K are presented as the average percentage of MFI relative to DMSO treated control±SD from n=3 replicates. Statistical analysis was performed using GraphPad PRISM Version 9.0.0.

Test [5] concerns overall MHC-I presentation in E.G7-Ova cells. Nature of the test: FACS analysis with citric acid wash. In kind it is cell-based, mouse. As to conditions: 4 h treatment, recovery up to 4 h. Here is the method: as §1

Peptide text beside a SMILES is read from it. * marks the point of attachment. Cbz = O=C(OCc1ccccc1)*

T2 sequence (Q06323 whole entry): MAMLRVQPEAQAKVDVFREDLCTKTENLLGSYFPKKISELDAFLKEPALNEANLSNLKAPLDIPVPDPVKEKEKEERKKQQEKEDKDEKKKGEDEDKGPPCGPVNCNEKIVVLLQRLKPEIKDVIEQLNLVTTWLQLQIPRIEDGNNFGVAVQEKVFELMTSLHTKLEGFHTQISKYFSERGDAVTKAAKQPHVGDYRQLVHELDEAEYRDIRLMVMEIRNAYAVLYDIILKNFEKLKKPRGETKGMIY
T1 sequence (O75533 whole entry): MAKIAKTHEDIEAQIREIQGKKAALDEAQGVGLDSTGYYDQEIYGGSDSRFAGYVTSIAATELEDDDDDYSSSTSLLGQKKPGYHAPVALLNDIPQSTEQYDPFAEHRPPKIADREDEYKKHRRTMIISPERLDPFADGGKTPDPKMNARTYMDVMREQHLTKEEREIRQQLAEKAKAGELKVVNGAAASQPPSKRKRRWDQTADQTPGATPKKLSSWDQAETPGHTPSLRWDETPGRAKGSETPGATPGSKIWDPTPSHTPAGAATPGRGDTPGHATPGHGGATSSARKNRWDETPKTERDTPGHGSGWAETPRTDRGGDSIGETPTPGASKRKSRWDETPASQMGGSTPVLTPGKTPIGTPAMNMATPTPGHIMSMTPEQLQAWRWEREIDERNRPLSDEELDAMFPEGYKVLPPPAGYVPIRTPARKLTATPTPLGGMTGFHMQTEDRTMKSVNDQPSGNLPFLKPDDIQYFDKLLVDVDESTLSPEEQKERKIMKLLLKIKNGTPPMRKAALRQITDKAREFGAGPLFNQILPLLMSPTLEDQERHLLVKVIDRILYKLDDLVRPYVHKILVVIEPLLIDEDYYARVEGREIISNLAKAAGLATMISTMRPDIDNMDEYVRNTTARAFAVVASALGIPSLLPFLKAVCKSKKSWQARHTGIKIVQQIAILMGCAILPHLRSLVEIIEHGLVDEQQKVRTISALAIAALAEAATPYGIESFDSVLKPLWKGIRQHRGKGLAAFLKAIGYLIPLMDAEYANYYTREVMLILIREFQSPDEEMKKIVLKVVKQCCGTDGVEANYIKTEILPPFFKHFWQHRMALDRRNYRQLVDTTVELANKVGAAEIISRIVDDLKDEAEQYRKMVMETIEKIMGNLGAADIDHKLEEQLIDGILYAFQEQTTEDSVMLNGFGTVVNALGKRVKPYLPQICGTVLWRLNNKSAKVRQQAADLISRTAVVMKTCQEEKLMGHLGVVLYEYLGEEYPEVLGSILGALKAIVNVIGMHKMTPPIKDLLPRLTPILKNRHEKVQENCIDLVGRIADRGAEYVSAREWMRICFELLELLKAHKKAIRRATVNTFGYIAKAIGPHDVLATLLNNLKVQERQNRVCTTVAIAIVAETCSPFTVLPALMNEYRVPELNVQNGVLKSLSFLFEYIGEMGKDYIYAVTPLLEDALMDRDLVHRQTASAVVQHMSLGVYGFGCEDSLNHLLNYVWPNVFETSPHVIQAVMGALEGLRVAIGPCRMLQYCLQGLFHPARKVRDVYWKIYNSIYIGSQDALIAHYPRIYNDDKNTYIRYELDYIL
T1 sequence (Q7RTV0 whole entry): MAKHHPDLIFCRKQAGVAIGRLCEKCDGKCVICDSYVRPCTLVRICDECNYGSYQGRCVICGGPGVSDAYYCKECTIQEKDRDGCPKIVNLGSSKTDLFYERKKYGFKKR
T1 sequence (Q15393 whole entry partner): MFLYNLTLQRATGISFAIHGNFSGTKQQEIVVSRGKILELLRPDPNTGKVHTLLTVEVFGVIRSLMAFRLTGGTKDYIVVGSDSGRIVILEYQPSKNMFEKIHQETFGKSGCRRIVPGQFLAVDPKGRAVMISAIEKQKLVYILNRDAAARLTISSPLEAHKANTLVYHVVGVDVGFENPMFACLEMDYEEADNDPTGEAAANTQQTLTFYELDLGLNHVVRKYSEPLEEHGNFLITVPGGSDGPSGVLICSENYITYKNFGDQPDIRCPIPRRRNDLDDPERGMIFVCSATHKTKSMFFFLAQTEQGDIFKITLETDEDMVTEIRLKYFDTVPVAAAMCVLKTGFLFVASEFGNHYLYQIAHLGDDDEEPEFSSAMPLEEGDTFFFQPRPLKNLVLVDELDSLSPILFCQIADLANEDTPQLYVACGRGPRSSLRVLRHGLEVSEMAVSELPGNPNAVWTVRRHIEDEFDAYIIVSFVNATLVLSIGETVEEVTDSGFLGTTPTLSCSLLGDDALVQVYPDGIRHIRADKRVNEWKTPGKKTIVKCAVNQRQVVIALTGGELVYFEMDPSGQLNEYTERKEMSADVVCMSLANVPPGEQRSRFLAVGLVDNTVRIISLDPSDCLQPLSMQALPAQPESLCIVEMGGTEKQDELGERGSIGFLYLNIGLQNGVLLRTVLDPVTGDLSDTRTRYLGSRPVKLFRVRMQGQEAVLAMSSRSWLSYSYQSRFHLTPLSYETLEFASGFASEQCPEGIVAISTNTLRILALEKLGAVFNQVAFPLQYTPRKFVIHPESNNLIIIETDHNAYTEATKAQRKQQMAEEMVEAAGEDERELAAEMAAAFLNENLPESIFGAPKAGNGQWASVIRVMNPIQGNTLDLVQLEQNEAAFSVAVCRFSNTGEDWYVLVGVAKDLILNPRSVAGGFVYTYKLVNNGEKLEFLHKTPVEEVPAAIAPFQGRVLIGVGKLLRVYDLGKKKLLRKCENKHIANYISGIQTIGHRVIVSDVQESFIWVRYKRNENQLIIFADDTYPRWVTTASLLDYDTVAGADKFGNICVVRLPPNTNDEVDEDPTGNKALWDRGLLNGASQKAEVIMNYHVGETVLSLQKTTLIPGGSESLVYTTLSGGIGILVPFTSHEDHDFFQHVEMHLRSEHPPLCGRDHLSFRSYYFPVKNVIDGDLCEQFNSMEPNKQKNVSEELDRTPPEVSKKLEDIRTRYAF
T1 sequence (Q9BWJ5 whole entry partner): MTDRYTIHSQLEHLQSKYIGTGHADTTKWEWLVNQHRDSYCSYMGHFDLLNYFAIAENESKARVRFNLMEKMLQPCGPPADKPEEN

As for `C#CCOc1ccc2[nH]c3c(c2c1)C[C@@H](C(=O)OC)N(C(=O)C=C)[C@@H]3c1ccc2c(c1)OCO2` [WX-01-10, methyl (1R,3S)-2-acryloyl-1-(benzo[d][1,3]dioxol-5-yl)-6-(prop-2-yn-1-yloxy)-2,3,4,9-tetra-hydro-1H-pyrido[3,4-b]indole-3-carboxylate], at SF3B1 (~150 kDa protein), the “alkyne probe labeling of ~150 kDa protein” value is on record as “labeled an ˜150 kDa protein”.

Turning to `C#Cc1ccc([C@H]2CN(C(=O)C=C)[C@H]2C(=O)Nc2cccc3cccnc23)cc1` [MY-11B, (2R,3S)-1-acryloyl-3-(4-ethynylphenyl)-N-(quinolin-8-yl)azetidine-2-carboxamide], the “alkyne probe labeling of PSME1_C22 (CuAAC, azide-rhodamine)” value in test [1] was “site-specific and stereoselective engagement”.

Regarding pladienolide B [reference compound], the “SF3B1 interactions (DDX42 association)” value in test [2] was “similar, but not identical reshaping of SF3B1 interactions”. Besides, the “anti-proliferative effect” value in the test with 22Rv1 cells is listed as “strong anti-proliferative activity”. In the test on p27, the p27 expression result was “induced expression of p27”. Moreover, the mRNA splicing changes result in test [3] is “induction of both intron retention and exon skipping events”.

With `CC(C)C[C@@H](C=O)NC(=O)[C@H](CC(C)C)NC(=O)[C@H](CC(C)C)NC(=O)OCc1ccccc1` [MG132, reference compound] (Cbz-Leu-Leu-Leu-aldehyde), the “SIINFEKL presentation after acid wash” value in test [4] is “suppressed both SIINFEKL peptide and MHC-I presentation”. The “overall MHC-I presentation after acid wash” value in test [5] was “suppressed both SIINFEKL peptide and MHC-I presentation”.
